For assay [1], the system named is (D2)mix. The assay can be described thus: Agarose gel electrophoresis staining of dsDNA band. The class given is binding. To be noted: 3% agarose gel, about 0.6 μg dsDNA, UV-illumination.
Assay [2] relates to HEK293 cells. The assay can be described thus: DNase I and RNase digestion studies. The class given is cell-based. To be noted: 2 hours. On the procedure:
DNase I is known to degrade nuclear DNA while RNase degrades RNA in the cytoplasm by catalyzing phosphodiester bonds cleavage. HEK293 cells are fixed with chilled methanol for about 1 minute at room temperature and permeabilized with 0.1% Triton X-100 in PBS for about 2×5 minutes. After rinsing with PBS twice, for one set of experiments, cells are treated with probe TC (5 μM) for about 15 min at room temperature in three adjacent wells. A total of about 200 μL PBS (as control experiment), about 100 μg/mL DNase I (Sigma), or about 30 μg/ml DNase-Free RNase (GE) is added into the three adjacent wells and incubated at about 37° C. for about 2 hours. For another set of experiments, instead of treating with probe TC, cells are only treated with about 200 μL PBS (as control experiment), about 100 μg/ml DNase I (Sigma), or about 30 μg/mL DNase-Free RNase (GE) by adding into the three adjacent wells and incubating at about 37° C. for about 2 hours. […] After two more washes in PBS with 0.1% Triton X-100, the cover slips are washed in PBS, rinsed in ddH2O and briefly dipped in 100% ethanol. After a quick dry, cover slips are mounted with 70% glycerol. Images are captured using a Carl Zeiss Laser Scanning Microscope (LSM510 META) using an equal exposure time for control, DNase I, and RNase experiments. Experiments are done in duplicate.

Assay [3] has as its target α-Synuclein (α-Syn) aggregates (Homo sapiens, UniProt P37840). The assay is described as follows: Selectivity: fluorescence with α-synuclein aggregates. The format is binding. To be noted: α-Syn aggregates 20 μM.
Assay [4] has as its target Aβ42 aggregates (Homo sapiens, UniProt P05067). The assay can be described thus: Binding saturation assay (fluorescence) for binding constant.
For assay [5], the system named is Plasmodium falciparum. The assay is described as follows: Live cell fluorescence imaging of malaria parasites in erythrocytes. To be noted: (FIG. 38 legend 1 and 2 μM), 30 minutes. The format is cell-based, P. falciparum 3D7 strain.
Assay [6] concerns ssDNA oligonucleotides (dA10, dT10, dG10 and dC10). The assay is described as follows: Fluorescence emission in presence of ssDNA oligonucleotides. The class given is binding. To be noted: probe 10 μM, Tris-HCl buffer.
Assay [7] concerns (D2)mix. The assay can be described thus: Thermal denaturation (UV-melting) of dsDNA with probe TC. The format is binding.
For assay [8], the system named is (GC)10. The assay is described as above. The format is binding.
Assay [9] relates to (AT)10. The description is as above. The class given is binding.

“Also recorded” adds a separate entry of the source.

Aβ42 aggregates, sequence (P05067 672-713 limits assumed): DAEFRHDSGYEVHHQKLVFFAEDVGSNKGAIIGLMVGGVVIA

In the case of `CCN(CC)c1ccc2cc(/C=C/c3sc4ccccc4[n+]3C)c(=O)oc2c1` [TC, (E)-3-(2-(N-methyl-benzo[d]thiazol-2-yl)vinyl)-7-(diethylamino)-2H-chromen-2-one], the “gel staining of (D2)mix band” value in [1] is given as “strong fluorescence intensity”. Further, the “fluorescence nuclear staining after DNase I digestion” value in assay [2] (DNase I about 100 μg/mL) was “almost completely diminished”. For the same compound, the “fluorescence nuclear staining after RNase digestion” value in assay [2] (RNase about 30 μg/mL) is “does not affect the fluorescence staining”. The “fluorescence enhancement with α-Syn aggregates” value in assay [3] is given as “does not lead to significant fluorescence enhancements”. For the same compound, the “association constant Ka” value in assay [4] (2 μM of Aβ42 aggregates) stood at 1.72e+07 M⁻¹. The Kd in assay [4] (fluorescence saturation curve, Aβ42 aggregates 10 μM (QC) or 2 μM (TC), read-out: dissociation constant Kd) is 58 ± 1.2 nM. Besides, in [5], the “staining of trophozoite stage parasites in red blood cells” value was “specifically binds to the parasite cells within the red blood cells; also recorded: accumulated specifically in the nucleus of the parasitized red blood cell”. In addition, the “emission behaviour in presence of ssDNA” value in [6] is on record as “do not show significant changes in the emission behaviour”. The “Tm(DNA + TC)” value in [7] stood at 73.5 °C; in [8] it was 60.3 °C; in assay [9], 25.6 °C. The ΔTm in assay [7] (TC bound vs unbound) worked out at 1.6 °C.

The Kd is the equilibrium constant for the complex coming apart. What is called ΔTm is the shift of the melting midpoint relative to a reference.

Source of the values: patent US10745393B2, “Small molecular probes, processes and use thereof” (JAWAHARLAL NEHRU CENTRE FOR ADVANCED SCIENTIFIC RESEARCH, priority 2014, dated 2020).
